Data as given in patent US5371186A, “Synthetic peptides for detoxification of bacterial endotoxins and for the prevention and treatment of septic shock” (priority 1992, dated 1994).

What was measured:
[1] = prevention of endotoxin-induced death in CD1 mice sensitized with Actinomycin D; format: in vivo, mice (Strain CD1); conditions: 0.1 mg/mouse i.v., 1 μg endotoxin i.p.; for Mice surviving: 20 mice per group
Procedure: Prevention of endotoxin-induced death in mice, has been achieved by intravenous injection of the peptides of the invention. For this experiment, a strain of mice highly sensitive to the lethal activity of bacterial endotoxin has been used. Mice sensitized with Actinomycin D (Strain CD1) show a high sensitivity to extremely low doses of endotoxin. A dose as low as 1 μg of endotoxin per mouse (about 40 μg/kg of body weight) is able to completely kill a population of mice within 24-48 hours.
Groups of 20 mice CD1 have been treated intravenously with the peptides of the invention, with a single dose of 0.1 mg peptide, solubilized in sterile saline, per mouse. Thirty minutes later, mice were challenged by intraperitoneal injection of 1 μg of endotoxin purified from E. Coli strain 055-B5. Surviving mice were recorded every 24 hours during a seven days-period of observation. […] Negative controls received an intravenous injection of saline.
There were 20 mice per group. Mice surviving at each of the seven 24 hours observation periods are listed. The % survival appears in parenthesis. P expresses the level of statistical significance calculated by "t-Test" for each molecule compared to the treatment with saline, considering the total survival rate in each group.

[2] = highest dose tolerated in the mouse when injected alone; format: in vivo; conditions: intravenously
[3] = direct competition with Polymyxin "B" (Affinity constant, Selectivity); format: binding, B. pertussis
Source text: To further characterize the binding activity of the synthetic peptides for Lipid A of endotoxin, experiments of direct competition with Polymyxin "B" have been set-up in order to evaluate the Affinity constant value of Polymyxin "B" for the toxic moiety of endotoxin and ultimately to calculate the Selectivity of the synthetic peptide analogs (ratio on molar basis, between the affinity constant value of a given peptide and that of Polymyxin "B" for Lipid A).

[4] = test system: spleen cells from unimmunized healthy SJL/J mice; assay: LPS-induced polyclonal B-cell activation, 3H-thymidine incorporation; format: cell-based; conditions: LPS 50 μg/ml, LPS alone 22,737, non stimulated 2,449 cpm
Procedure: Cells were cultured in RPMI medium containing 1.0% normal mouse serum at 37° C. for 3 days. Cultures were pulsed with 1.0 μi/well of 3H-thymidine for 16 hours and harvested for counting on an LS betaplate counter. The results were as follows:
cpm measured with non stimulated cultures = 2,449.

Haemophilus influenzae = assay: antibiotic activity, zone of inhibition on BHI plates; format: cell-based, H. influenzas; conditions: 18 hours
Procedure: The following experiments compared the antibiotic activity of Polymyxin "B" with various peptides of the invention.
The tests were performed on BHI plates with liquid cultures of the test organism to give a lawn. Each peptide was diluted in water and placed on sterile Wathmam 3M disks on the surface of the plate. The plates were dried and incubated at 37° C. The zone of inhibition was measured after 18 hours: […]

## Polymyxin "B"
[1]; 24 hs
  % survival: 50%
  Mice surviving: 10
[1]; 48 hs
  % survival: 40%
  Mice surviving: 8
[1]; 72 hs
  % survival: 30%
  Mice surviving: 6
[1]; 96 hs
  % survival: 30%
  Mice surviving: 6
[1]; 120 hs
  % survival: 30%
  Mice surviving: 6
[1]; 144 hs
  % survival: 30%
  Mice surviving: 6
[1]; 168 hs
  % survival: 30%
  Mice surviving: 6
[2]
  highest dose tolerated in the mouse: 0.1 mg/mouse
[3]; for Lipid A of LPSbp
  AFFINITY (Ka): 1.15e+07 L/mol
[3]; ratio of Ka of peptide to Ka of Polymyxin "B" for Lipid A
  SELECTIVITY (KaANA /KaPCP): 1.0
[4]; 12.5 μg/ml
  3H-thymidine incorporation: 2,366 cpm
[4]; 25 μg/ml
  3H-thymidine incorporation: 3,559 cpm
[4]; 50 μg/ml
  3H-thymidine incorporation: 2,831 cpm
[4]; 100 μg/ml
  3H-thymidine incorporation: 4,128 cpm
Haemophilus influenzae; 0.008 μg/ml
  Zone (mm) of inhibition H. influenzas: 0 mm
Haemophilus influenzae; 0.04 μg/ml
  Zone (mm) of inhibition H. influenzas: 0 mm
Haemophilus influenzae; 0.2 μg/ml
  Zone (mm) of inhibition H. influenzas: 3 mm
Haemophilus influenzae; 1.0 μg/ml
  Zone (mm) of inhibition H. influenzas: 6 mm
